US8722670B2, “Selective NR2B antagonists” (Bristol-Myers Squibb Company, priority 2011, dated 2014)

biological target: T1, hNR2B (Homo sapiens, UniProt Q13224); experiment: Electrophysiology NMDA receptor experiments: two electrode voltage-clamp in Xenopus laevis oocytes, hNR2B IC50; format: cell-based; settings: hNR2B activity class, 50 μM glutamate, 30 μM glycine
T1 construct: expressed in transfected cells; host or cells: Xenopus laevis oocytes, cRNA-injected
T1 sequence (Q13224 27-1484, other chains not shown): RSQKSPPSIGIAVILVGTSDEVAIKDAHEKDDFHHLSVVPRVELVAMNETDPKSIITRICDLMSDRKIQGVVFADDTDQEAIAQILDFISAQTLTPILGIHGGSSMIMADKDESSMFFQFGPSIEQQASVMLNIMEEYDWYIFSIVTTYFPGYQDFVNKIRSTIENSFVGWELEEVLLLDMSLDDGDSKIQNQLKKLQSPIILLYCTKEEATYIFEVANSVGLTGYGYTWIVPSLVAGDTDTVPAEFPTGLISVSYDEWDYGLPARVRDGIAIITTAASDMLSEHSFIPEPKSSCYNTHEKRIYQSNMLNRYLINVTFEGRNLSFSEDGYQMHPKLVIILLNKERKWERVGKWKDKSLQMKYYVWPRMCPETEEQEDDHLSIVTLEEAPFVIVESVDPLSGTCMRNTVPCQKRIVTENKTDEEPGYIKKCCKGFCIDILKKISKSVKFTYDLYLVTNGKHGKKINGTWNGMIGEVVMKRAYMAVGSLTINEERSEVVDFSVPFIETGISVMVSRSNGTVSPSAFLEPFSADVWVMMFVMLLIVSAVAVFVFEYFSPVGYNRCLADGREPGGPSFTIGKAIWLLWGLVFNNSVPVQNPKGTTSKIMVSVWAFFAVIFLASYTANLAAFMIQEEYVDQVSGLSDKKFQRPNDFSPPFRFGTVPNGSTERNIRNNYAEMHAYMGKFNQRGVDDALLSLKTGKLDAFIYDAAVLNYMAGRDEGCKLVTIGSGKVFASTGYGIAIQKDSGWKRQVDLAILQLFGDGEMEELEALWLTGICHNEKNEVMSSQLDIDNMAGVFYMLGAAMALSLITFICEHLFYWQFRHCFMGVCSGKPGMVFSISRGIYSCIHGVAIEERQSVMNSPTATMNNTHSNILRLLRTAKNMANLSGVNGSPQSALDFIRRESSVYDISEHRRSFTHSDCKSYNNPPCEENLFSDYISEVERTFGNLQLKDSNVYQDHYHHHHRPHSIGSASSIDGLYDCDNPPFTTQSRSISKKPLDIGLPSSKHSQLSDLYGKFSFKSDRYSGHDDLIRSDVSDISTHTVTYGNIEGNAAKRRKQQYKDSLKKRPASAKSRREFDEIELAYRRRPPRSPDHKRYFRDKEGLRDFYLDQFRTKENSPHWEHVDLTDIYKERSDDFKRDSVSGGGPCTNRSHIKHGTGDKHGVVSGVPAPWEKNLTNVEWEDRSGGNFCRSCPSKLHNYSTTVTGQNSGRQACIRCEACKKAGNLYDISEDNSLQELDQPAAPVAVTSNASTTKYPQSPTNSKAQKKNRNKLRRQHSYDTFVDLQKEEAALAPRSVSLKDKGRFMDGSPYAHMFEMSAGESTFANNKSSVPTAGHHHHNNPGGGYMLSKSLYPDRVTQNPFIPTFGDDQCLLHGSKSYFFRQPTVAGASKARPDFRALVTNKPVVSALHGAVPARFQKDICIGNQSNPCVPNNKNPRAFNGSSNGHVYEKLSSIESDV
Protocol: (§1) Stage V and VI oocytes were surgically removed from the ovaries of large, well-fed and healthy Xenopus laevis anesthetized with 3-amino-benzoic acid ethyl ester (3 gm/l). […] Oocytes were then washed in the same solution supplemented with 1.8 mM CaCl2 and maintained in Barth's solution comprised of (in mM): 88 NaCl, 1 KCl, 2.4 NaHCO3, 10 HEPES, 0.82 MgSO4, 0.33 Ca(NO3)2, and 0.91 CaCl2 and supplemented with 100 μg/ml gentamycin, 10 μg/ml streptomycin, and 10 μg/ml penicillin.
(§2) Two electrode voltage-clamp recordings were made 2-7 days post-injection. Oocytes were placed in a dual-track plexiglass recording chamber with a single perfusion line that splits in a Y-configuration to perfuse two oocytes. Dual recordings were made at room temperature (23° C.) using two Warner OC725B two-electrode voltage clamp amplifiers, arranged as recommended by the manufacturer. Glass microelectrodes (1-10 Megaohms) were filled with 300 mM KCl (voltage electrode) or 3 M KCl (current electrode). The bath clamps communicated across silver chloride wires placed into each side of the recording chamber, both of which were assumed to be at a reference potential of 0 mV. Oocytes were perfused with a solution comprised of (in mM) 90 NaCl, 1 KCl, 10 HEPES, 10 EDTA and 0.5 BaCl2; pH 7.4, adjusted by addition of NaOH. Oocytes were recorded under voltage clamp at −40 mV. Final concentrations for glutamate and glycine were 50 μM and 30 μM, respectively. […] Dose response curves consisting of four to eight concentrations were obtained in this manner. The baseline leak current at −40 mV was measured before and after recording, and the full recording linearly corrected for any change in leak current. The level of inhibition by applied experimental compounds was expressed as a percent of the initial glutamate response, and averaged together across oocytes from multiple experiments.
(§3) For NMDA receptor subtype selectivity experiments human GluN1/GluN2A, GluN1/GluN2C, and GluN1/GluN2D cRNAs were expressed in Xenopus laevis as described above. Here, 10 μM concentrations of the antagonist was perfused with 50 μM glutamate and 30 μM glycine onto the oocyte for two min and the remaining current in the presence of the antagonist was compared to the maximal current obtained with 50 μM glutamate and 30 μM glycine alone (defined as 100%). When IC50 determinations were made against other NMDA receptor subtypes the protocol as described above was followed.

Structure (SMILES)	IC50 [nM]
CC(Oc1ccc2[nH]c(=O)ccc2c1)c1nnc(Nc2ccc(Cl)c(Cl)c2)o1 (single isomer, unassigned) [Example 110]	< 200

biological target: T2, hNR2B (Homo sapiens, UniProt Q05586+Q13224); experiment: as above; format: cell-based; settings: hNR2B activity class, 50 μM glutamate, 30 μM glycine, read-out: Activity
T2 construct: expressed in transfected cells; host or cells: Xenopus laevis oocytes, cRNA-injected
T2 sequence (Q13224 27-1484, other chains not shown): as above
Protocol: as §1, §2, §3

Structure (SMILES)	IC50 [nM]
O=c1ccc2cc(OCc3nnc(NCc4c(Cl)cccc4Cl)o3)ccc2[nH]1 [Example 70]	1000 to 10000
Oc1ccc(Cc2nnc(NCc3ccc(Cl)c(Cl)c3)o2)cc1 [Example 150]	1000 to 10000
CCc1ccc(Nc2noc(CCc3ccc4[nH]ncc4c3)n2)cc1 [Example 211]	< 200
O=C1CCc2cc(CCc3nnc(Nc4ccc(Cl)c(F)c4)o3)ccc2N1 [Example 135]	< 200
Cc1cc(Nc2cc(COc3ccc4[nH]c(=O)ccc4c3)on2)ccc1F [Example 270]	1000 to 10000
FC(F)(F)c1ccc(Nc2noc(CCCc3ccc4[nH]ncc4c3)n2)cc1 [Example 203]	> 10000
O=C1CCc2cc(CCc3nnc(Nc4ccc(Cl)cc4)o3)ccc2N1 [Example 129]	< 200
O=C1CCc2cc(OCc3nnc(Nc4ccc(Cl)cc4)s3)ccc2N1 [Example 250]	201 to 1000
O=c1ccc2cc(OCc3nnc(Nc4ccccc4C(F)(F)F)o3)ccc2[nH]1 [Example 54]	> 10000
Fc1cc(Nc2cc(COc3ccc4[nH]ncc4c3)on2)ccc1OC(F)F [Example 274]	< 200
CCOC(=O)Cc1ccc(Nc2nnc(COc3ccc4c(c3)CCC(=O)N4)o2)cc1 [Example 18]	> 10000
Cc1cc(Nc2nnc(COc3ccc4[nH]c(=O)ccc4c3)o2)ccc1F [Example 90]	201 to 1000
CC(Oc1ccc2[nH]c(=O)ccc2c1)c1nnc(Nc2ccc(OC(F)F)c(Cl)c2)o1 (centres unmarked) [Example 108]	< 200
O=C1CCc2cc(CCc3nnc(NCc4ccc(Cl)c(Cl)c4)o3)ccc2N1 [Example 132]	< 200
O=C1CCc2cc(CCc3nc(Nc4ccc(Cl)c(Cl)c4)no3)ccc2N1 [Example 199]	> 10000
O=c1ccc2cc(OCc3nnc(Nc4ccc(Cl)cc4)o3)ccc2[nH]1 [Example 12]	< 200
FC(F)(F)c1ccc(Nc2nnc(CCc3ccc4[nH]ncc4c3)o2)cc1 [Example 144]	< 200
O=c1ccc2cc(OCc3nnc(Nc4ccc(F)c(C(F)F)c4)o3)ccc2[nH]1 [Example 99]	201 to 1000
CCc1ccc(Nc2noc(CCc3ccc4[nH]ncc4c3)n2)cc1Cl [Example 212]	201 to 1000
Cc1cc(Nc2cc(COc3ccc4[nH]ncc4c3)on2)ccc1OC(F)F [Example 272]	< 200
Fc1cc(Nc2noc(CCc3cnc4[nH]ncc4c3)n2)ccc1OC(F)F [Example 233]	< 200
CC1(C)Cc2cc(OCc3nnc(Nc4ccc(Cl)c(Cl)c4)o3)ccc2NC1=O [Example 80]	1000 to 10000
CCCc1ccc(Nc2cc(COc3ccc4[nH]c(=O)ccc4c3)on2)cc1 [Example 266]	> 10000
FC(F)(F)c1n[nH]c2ccc(CCc3nnc(Nc4ccc(Cl)c(Cl)c4)o3)cc12 [Example 143]	> 10000
Clc1ccc(Nc2noc(CCc3ccc4[nH]ncc4c3)n2)cc1Cl [Example 198]	1000 to 10000

Structure (SMILES)	IC50 [nM]
O=c1ccc2cc(OCc3cc(Nc4ccc(OC(F)F)c(F)c4)no3)ccc2[nH]1 [Example 267]	< 200
FC(F)Oc1ccc(Nc2noc(CCc3ccc4[nH]ncc4c3)n2)cc1Cl [Example 205]	> 10000
O=c1ccc2cc(OCc3nnc(Nc4ccccc4F)o3)ccc2[nH]1 [Example 33]	> 10000
CCc1ccc(Nc2cc(COc3ccc4[nH]c(=O)ccc4c3)on2)cc1 [Example 265]	< 200
Oc1cccc(OCc2nnc(Nc3ccc(Cl)c(Cl)c3)o2)c1 [Example 116]	1000 to 10000
O=c1ccc2cc(OCc3nc(Nc4ccc(F)cc4)no3)ccc2[nH]1 [Example 158]	> 10000
Clc1ccc(Nc2noc(CCCc3ccc4[nH]ncc4c3)n2)cc1Cl [Example 202]	> 10000
Cc1cc(CNc2nnc(COc3ccc4[nH]c(=O)ccc4c3)o2)ccc1F [Example 86]	201 to 1000
Clc1ccc(Nc2noc(COc3ccc4[nH]ncc4c3)n2)cc1Cl [Example 187]	> 10000
COc1ccc(Nc2nnc(COc3ccc4[nH]c(=O)ccc4c3)o2)cc1F [Example 103]	201 to 1000
O=c1ccc2cc(OCc3nnc(Nc4ccc(Cl)c(OC(F)F)c4)o3)ccc2[nH]1 [Example 88]	< 200
Oc1ccc(Cc2nnc(Nc3ccc(Cl)c(Cl)c3)o2)cc1 [Example 149]	1000 to 10000
Clc1ccc(CNc2noc(COc3ccc4[nH]ncc4c3)n2)cc1 [Example 189]	1000 to 10000
FC(F)Oc1ccc(Nc2cc(COc3ccc4[nH]ncc4c3)on2)cc1Cl [Example 258]	< 200
O=c1ccc2cc(OCc3nc(Nc4ccc(F)c(Cl)c4)no3)ccc2[nH]1 [Example 192]	1000 to 10000
O=C1COc2cc(OCc3nnc(Nc4ccc(Cl)c(Cl)c4)o3)ccc2N1 [Example 125]	201 to 1000
CC1(C)Cc2cc(OCc3nnc(NCc4ccc(Cl)c(Cl)c4)o3)ccc2NC1=O [Example 84]	> 10000
O=c1ccc2cc(OCc3nnc(NCc4ccccc4F)o3)ccc2[nH]1 [Example 100]	1000 to 10000
O=c1ccc2cc(OCc3nnc(Nc4c(Cl)cccc4Cl)o3)ccc2[nH]1 [Example 66]	> 10000
O=C1CCc2cc(OCc3nnc(NCc4ccc(Cl)c(Cl)c4)o3)ccc2N1 [Example 21]	< 200
CC(Oc1ccc2[nH]c(=O)ccc2c1)c1nnc(Nc2ccc(Cl)c(Cl)c2)o1 (single isomer, unassigned) [Example 109]	< 200
O=c1ccc2cc(OCc3cc(Nc4ccc(OC(F)F)c(Cl)c4)no3)ccc2[nH]1 [Example 255]	< 200
O=c1ccc2cc(OCc3nnc(NCc4ccc(Cl)c(Cl)c4)o3)ccc2[nH]1 [Example 22]	< 200
O=c1ccc2cc(OCc3nnc(NCc4ccc5c(c4)OCO5)o3)ccc2[nH]1 [Example 85]	1000 to 10000

same assay, conditions: voltage clamp -40 mV, 50 μM glutamate, 30 μM glycine, read-out: hNR2B IC50

Structure (SMILES)	IC50 [nM]
O=c1ccc2cc(OCc3nc(Nc4ccc(C(F)(F)F)cc4)no3)ccc2[nH]1 [Example 181]	145
O=c1ccc2cc(OCc3nnc(Nc4ccc(Cl)c(F)c4)o3)ccc2[nH]1 [Example 49]	18
O=C1CCc2cc(OCc3nnc(Cc4ccc(Cl)c(Cl)c4)[nH]3)ccc2N1 [Example 284, 6-((5-(3,4-dichlorobenzyl)-4H-1,2,4-triazol-3-yl)methoxy)-3,4-dihydroquinolin-2(1H)-one]	20000
FC(F)Oc1ccc(Nc2nnc(CCc3ccc4[nH]nc(C(F)(F)F)c4c3)o2)cc1Cl [Example 142]	4680
O=c1ccc2cc(OCc3nnc(Cc4ccc(Cl)c(Cl)c4)o3)ccc2[nH]1 [Example 289, 6-((5-(3,4-dichlorobenzyl)-1,3,4-oxadiazol-2-yl)methoxy)quinolin-2(1H)-one]	2400
O=C1CCc2cc(OCCNc3nnc(-c4ccc(C(F)(F)F)cc4)o3)ccc2N1 [Example 291, 6-(2-(5-(4-(trifluoromethyl)phenyl)-1,3,4-oxadiazol-2-ylamino)ethoxy)-3,4-dihydroquinolin-2(1H)-one]	1200
O=C1CCc2cc(OCc3nnc(NCc4ccc(Cl)cc4)o3)ccc2N1 [Example 20]	476
O=C1CCc2cc(OCc3nnc(C(O)c4ccc(Cl)c(Cl)c4)o3)ccc2N1 (centres unmarked) [Example 290, 6-((5-((3,4-dichlorophenyl)(hydroxy)methyl)-1,3,4-oxadiazol-2-yl)methoxy)-3,4-dihydroquinolin-2(1H)-one]	4800
O=C1CCc2cc(OCc3nnc(Nc4ccc(Cl)c(Cl)c4)o3)ccc2N1 [Example 5]	57
O=c1ccc2cc(C3CC3c3nnc(Nc4ccc(C(F)(F)F)cc4)o3)ccc2[nH]1 (centres unmarked) [Example 154, 6-(2-(5-((4-(trifluoromethyl)phenyl)amino)-1,3,4-oxadiazol-2-yl)cyclopropyl)quinolin-2(1H)-one]	9.5
O=C1CCc2cc(OCCCc3noc(-c4ccc(Cl)cc4)n3)ccc2N1 [Example 288, 6-(3-(5-(4-chlorophenyl)-1,2,4-oxadiazol-3-yl)propoxy)-3,4-dihydroquinolin-2(1H)-one]	> 10000
O=c1ccc2cc(OCc3nnc(Cc4ccc(Cl)c(Cl)c4)[nH]3)ccc2[nH]1 [Example 285, 6-((5-(3,4-dichlorobenzyl)-4H-1,2,4-triazol-3-yl)methoxy)quinolin-2(1H)-one]	5000
O=c1ccc2cc(OCc3nnc(Nc4ccc(C(F)(F)F)cc4)o3)ccc2[nH]1 [Example 11]	55
O=C1CCc2cc(OCc3nc(Nc4ccc(Cl)c(Cl)c4)no3)ccc2N1 [Example 156, 6-((3-(3,4-dichlorophenylamino)-1,2,4-oxadiazol-5-yl)methoxy)-3,4-dihydroquinolin-2(1H)-one]	390
O=c1ccc2cc(OCc3nnc(-c4ccc(Cl)c(Cl)c4)o3)ccc2[nH]1 [Example 2, 6-((5-(3,4-dichlorophenyl)-1,3,4-oxadiazol-2-yl)methoxy)quinolin-2(1H)-one]	> 10000
O=c1ccc2cc(OCc3cc(NCc4ccc(OC(F)F)cc4)no3)ccc2[nH]1 [Example 253, 6-((3-(4-(difluoromethoxy)benzylamino)isoxazol-5-yl)methoxy)quinolin-2(1H)-one]	321
Cn1c(COc2ccc3[nH]c(=O)ccc3c2)nnc1Nc1ccc(Cl)c(Cl)c1 [Example 276, 6-((5-(3,4-dichlorophenylamino)-4-methyl-4H-1,2,4-triazol-3-yl)methoxy)quinolin-2(1H)-one]	24
Oc1ccc(CCc2nnc(NCc3ccc(Cl)c(Cl)c3)o2)cc1 [Example 128, 4-(2-(5-(3,4-dichlorobenzylamino)-1,3,4-oxadiazol-2-yl)ethyl)phenol]	61
